Assay results as given in US8632789B2, “System and method for delivery of DNA-binding chemotherapy drugs using nanoparticles” (Syracuse University, priority 2010, dated 2014).

Experiment: Thermal denaturation (melting) of DNA-capped AuNP by UV-vis at 260 nm as a function of DOX loading
Format: physicochemical
Conditions: control studies, r=12; [DOX]=5.9 μM; [AuNP]=13.7 nM
Description: To probe the uptake of DOX via intercalation to 1ab-AuNP, we investigated the thermal denaturation of the 1ab strands by measuring increase in extinction at 260 nm using UV-visible spectroscopy (UV-vis).
We next utilized the 1ab- or 2ab-AuNP prepared above, with dsDNA-functionalization, for drug (DOX) loading. For each DOX binding and melting experiment, 1ab- or 2ab-AuNP were incubated for 40 min with DOX at specific ratios, r=[DOX]/[1ab/2ab]. In this study, we explored r=0-12, based on the number of 1ab per AuNP, as well as the number of binding sites at each 1ab. Next, each DOX-1ab-AuNP was analyzed via thermal denaturation melting experiments using temperature controlled UV-vis at Abs=260 nm and a heating rate of 1° C./min from 25° C. to 80° C. Each melting temperature was taken as the maximum of a peak-fitted first derivative plot of its corresponding melting curve (using PeakFit® Peak Separation and Analysis Software, V.4.12).
UV-visible Absorption (UV-vis): The UV-vis measurements were collected on a Varian Cary100 Bio UV-vis spectrophotometer between 200-900 nm. The instrument is equipped with an 8-cell automated holder with high precision Peltier heating controller.

- Cooperative melting in the temperature range of ~55-65° C.: not observed
SMILES: COc1cccc2c1C(=O)c1c(O)c3c(c(O)c1C2=O)C[C@@](O)(C(=O)CO)C[C@@H]3O[C@H]1C[C@H](N)[C@H](O)[C@H](C)O1 [DOX, doxorubicin]
